# Patent US20260041744A1, “Methods for Treating Pompe Disease” (Amicus Therapeutics, Inc., priority 2022, published 2026)
# Tested on: adult subjects with late-onset Pompe disease (LOPD)
# Test: Study ATB200-03 (PROPEL): 6-minute walk test (6MWD)
# Format: in vivo, human
# Procedure: Efficacy Analyses. The primary efficacy endpoint (i.e., change from baseline to Week 52 in 6MWD) was analyzed using a parametric analysis of covariance (ANCOVA) model to compare between the new treatment and the control. […] However, the baseline 6MWD could not be used in the model twice (both as a continuous and a categorical variable) due to the expected high point biserial correlation between them. Thus, the 6MWD continuous variable remained in the model but the categorical 6MWD was removed.
# The test for the primary endpoint was conducted first at the 1-sided 0.025 significance level, and if significant, the ordered key secondary endpoints were similarly tested at the same significance level. The statistical significance of the key secondary endpoints was interpreted following a hierarchical testing order, each at the 1-sided alpha level of 0.025. […] Primary analyses of efficacy were performed using the mixed-effect model for repeated measures (MMRM) for 6MWD in Intent-to-treat Observed Population (ITT) that includes all available, observed data without any missing data imputation (ITT-OBS) and analysis of covariance (ANCOVA) for all other endpoints in the Intent-to-Treat-Last Observation Carried Forward (ITT-LOCF) Population. A nonparametric randomization based ANCOVA was specified as the first sensitivity analysis for 6MWD and FVC. […] For the purposes of data presentation in this document, 2-sided p-values are reported hereafter, except as otherwise noted.
# Analysis of 6MWD was performed using an MMRM model with actual time point of assessments on the ITT-OBS and excluding the outlier Subject 4005-2511. Specifically, the dependent variable is the change from baseline in the assessment. Independent variables include the fixed, categorical effects of treatment, ERT status, and gender, as well as the fixed, continuous covariates of time of assessment (days), baseline 6MWD, baseline age, baseline weight, and baseline height, and the treatment-by-time interaction. A random intercept of subject is also included in the model. Change from baseline at Week 52 for each treatment group and the difference between treatment groups were then estimated with the LS means at Day 364, together with the 95% CIs.
# [1] = Baseline, ITT, ERT-naïve Population excluding Subject 4005-2511
# [2] = Week 52-LOCF, ERT-experienced Population
# [3] = Week 52-LOCF, ITT excluding Subject 4005-2511
# [4] = Week 52-LOCF, ITT, ERT-naïve Population excluding Subject 4005-2511
# [5] = Week 52-Observed, ERT-experienced Population
# [6] = Week 52-Observed, ITT excluding Subject 4005-2511
# [7] = Week 52-Observed, ITT, ERT-naïve Population excluding Subject 4005-2511
substance,measurement,setting,value
alglucosidase alfa [reference compound],"6MWD Absolute Value, Mean",[1],420.94 meters
same,"6MWD Absolute Value, Median",[1],385.50 meters
same,6MWD CFBL at Week 52,ERT switch (ERT-experienced) population,0.0 m
same,6MWD CFBL at Week 52,"ERT switch (ERT-experienced) population, listed as Alglucosidase alfa",0.0 (7.2) m
same,6MWD CFBL at Week 52,ERT treatment naive population,38 m
same,6MWD CFBL at Week 52,"ERT treatment naive population, listed as Alglucosidase alfa",+38.3 (11.1) m
same,mean (SD) change in 6MWD from baseline to Week 52,ERT-experienced Population (n=95),0.7 (39.84) meters
same,mean (SD) change in 6MWD from baseline to Week 52,ERT-naïve Population excluding Subject 4005-2511 (n=27),38.3 (29.32) meters
same,mean (SD) change in 6MWD from baseline to Week 52,ITT population excluding Subject 4005-2511,8.0 (40.56) meters
same,"6MWD LS mean improvement from baseline, MMRM with actual time point of assessments","ITT-OBS excluding Subject 4005-2511, Week 52",8.3 m
same,"Change in 6MWD baseline to Week 52, LS means (SE) from MMRM","ITT-OBS, ERT-naïve Population excluding Subject 4005-2511",39.47 (17.15) meters
same,"CHG to week 52 in 6MWD, LS Mean (95% CI)","MMRM, actual time point of assessments, ITT-OBS Population excluding Subject 4005-2511 (overall)","8.3 (−2.2, 18.8) m"
same,"CHG to Week 52 in 6MWD, LS Mean","MMRM, actual time point of assessments, ITT-OBS excluding Subject 4005-2511, ERT-naïve Subjects",52.7
same,"CHG to Week 52 in 6MWD, LS Mean","MMRM, actual time point of assessments, ITT-OBS, ERT-experienced Subjects",0.9
same,"6MWD Absolute Value, Mean (SD)",[2],334.60 (129.506) meters
same,"6MWD Absolute Value, Median",[2],339.03 meters
same,"6MWD CHG, Mean (SD)",[2],−0.02 (39.345) meters
same,"6MWD CHG, Median",[2],−8.93 meters
same,"6MWD Absolute Value, Mean",[3],358.19 meters
same,"6MWD Absolute Value, Median",[3],370.00 meters
same,"6MWD CHG, Mean",[3],7.24 meters
same,"6MWD CHG, Median",[3],1.40 meters
same,"6MWD Absolute Value, Mean",[4],459.28 meters
same,"6MWD Absolute Value, Median",[4],446.50 meters
same,"6MWD CHG (change from baseline), Mean",[4],38.34 meters
same,"6MWD CHG (change from baseline), Median",[4],33.50 meters
same,"6MWD Absolute Value, Mean (SD)",[5],335.66 (131.666) meters
same,"6MWD Absolute Value, Median",[5],348.00 meters
same,"6MWD CHG, Mean (SD)",[5],0.70 (39.841) meters
same,"6MWD CHG, Median",[5],−8.65 meters
same,"6MWD Absolute Value, Mean",[6],359.70 meters
same,"6MWD Absolute Value, Median",[6],371.75 meters
same,"6MWD CHG, Mean",[6],8.02 meters
same,"6MWD CHG, Median",[6],3.15 meters
same,"6MWD Absolute Value, Mean",[7],459.28 meters
same,"6MWD Absolute Value, Median",[7],446.50 meters
same,"6MWD CHG (change from baseline), Mean",[7],38.34 meters
same,"6MWD CHG (change from baseline), Median",[7],33.50 meters
same,"LS Mean (SE), Change from Baseline in 6MWD","Week 52, ANCOVA, ITT-LOCF excluding outliers with externally studentized residuals >3",6.95 (6.951) meters
same,"6MWD CHG, LS mean (SE)","Week 52, MMRM, ITT-OBS excluding Subject 4005-2511",7.10 (7.043) meters
same,"6MWD CHG, LS means (SE)","Week 52, MMRM, ITT-OBS, ERT-experienced Population",0.59 (7.569) meters
same,6MWD CFBL at Week 52,overall ERT switch + ERT naïve population,7 m
same,6MWD CFBL at Week 52,"overall ERT switch + ERT naïve population, listed as Alglucosidase alfa",+7.2 (6.6) m
same,6MWD CFBL at Week 52,"overall ERT switch + ERT naïve population, listed as alglucosidase alfa/placebo",7 m
